Source: patent US6815546B2, “Analogues of camptothecin, their use as medicaments and the pharmaceutical compositions containing them” (Societe de Recherches et d'Applications Scientifiques …, priority 1995, dated 2004)

How the values were obtained:
Type in all cases: cell-based
[1] = tested on: L1210 (mouse lymphocytic leukemia); assay: Test on cell proliferation (MTT test), L1210; details: 48 hours
Protocol: (§1) a. Eight tumoral cell lines are used in this study: L1210 (mouse lymphocytic leukemia), HCT15 and LOVO (cell lines of human colon adenocarcinoma), A549 (human lung carcinoma), A172, U373 et U87 (human glioblastoma). All these lines are obtained from the American Type Culture Collection (ATCC), Rockville, Md. The L1210 cell cultures in suspension are cultured in Dulbecco's modified Eagle's medium (DMEM) (BioWhitaker, Verviers, Belgium) together with 10% of foetal calf serum inactivated by heating, 2 mM of glutamine, 50 μg/ml of penicillin and 50 μg/ml of streptomycin. The HT29 cells are cultured in mono-layer cultures in a McCoy 5a medium (Gibco, Paisley, United Kingdom) together with 10% of foetal calf serum inactivated by heat plus 2 mM of glutamine and 50 μg/ml of gentamycin. The other cells are cultured in an Earle's modified essential medium (EMEM; Gibco, Paisley, United Kingdom) together with 5% foetal calf serum inactivated by heat, 2 mM of glutamine, 50 U/ml of penicillin and 50 μg/ml of streptomycin. All the cell lines are cultured at 37° C. in a humidified atmosphere containing 95% air and 5% CO2.
(§2) Inhibition of the tumor cell line proliferation is determined using an MTT test. 1500 L1210 cells in a culture medium (according to the needs of the cell medium) are seeded in a well of a micro-well plate (tissue culture level: 96 wells, flat bottom) 24 hours before treatment with the compounds to be tested. For these dose-response studies, the cells are incubated with each of the compounds to be tested or their corresponding solvent (controls) for 48 hours over a final concentration range of 1.10^−10 to 1.10^−4 M. All the compounds are dissolved just before use in dimethylsulphoxide (DMSO) at a concentration of 50 mM. Other dilutions of the medicaments are carried out in the culture medium. The final concentration of DMSO never exceeds 0.2% (v/v). As controls, the solutions of medicaments are replaced with the solvent which is diluted successively in the same way as the compounds to be tested.
(§3) After the incubation period, the labeling reagent MTT (3-[4,5-dimethylthiazol-2-yl]-2,5-diphenyltetrazolium bromide; Thiazol blue, Sigma M 565, Sigma, St Louis, Mo.) is added at a final concentration of 0.3 mg/ml to each well. The cells are incubated for 4 hours at 37° C. in a humidified atmosphere. This stage allows the mitochondrial dehydrogenase of the living cells to convert the yellow tetrazolium salt MTT into crimson formazan crystals. The supernatant part is eliminated and the formazan crystals formed are solubilized with DMSO. The resultant coloured solution is quantified by absorbance at 570 nm by using a multi-cuvette scanning spectrophotometer. The data concerning the proliferation is expressed as a percentage of living cells in the treated wells, divided by the living cells in the controls. Each point represents the average of three independent experiments, each experiment represents six determinations.
(§4) The results are expressed as percentages of the calculated proliferation by the optical density (OD) of the cells treated with a medicament divided by the OD of the control cells (cells treated with DMSO). As represented in Table II, the compounds to be tested have inhibited the proliferation of cells in a dose-dependent manner.

[2] = tested on: HCT15 (cell lines of human colon adenocarcinoma); assay: Test on cell proliferation (MTT test), HCT15; details: 72 hours
Protocol: as §1, §2, §3
(§5) For the other cell lines (HCT15, LOVO, A549, A172, U373, U87), 1000 to 2000 cells are seeded in the well of a micro-well plate 24 hours before medicinal treatment. […]
as §4

[3] = tested on: LOVO (cell lines of human colon adenocarcinoma); assay: Test on cell proliferation (MTT test), LOVO; details: 72 hours
Protocol: as §1, §2, §3, §5, §4

[4] = tested on: A549 (human lung carcinoma); assay: Test on cell proliferation (MTT test), A549; details: 72 hours
Protocol: as §1, §2, §3, §5, §4

[5] = tested on: A172 (human glioblastoma); assay: Test on cell proliferation (MTT test), A172; details: 72 hours
Protocol: as §1, §2, §3, §5, §4

[6] = tested on: U373 (human glioblastoma); assay: Test on cell proliferation (MTT test), U373; details: 72 hours
Protocol: as §1, §2, §3, §5, §4

U87 (human glioblastoma) = assay: Test on cell proliferation (MTT test), U87; details: 72 hours
Protocol: as §1, §2, §3, §5, §4

`CCC1(O)CC(=O)OCc2c1cc1n(c2=O)Cc2cc3ccccc3nc2-1` (stereo not shown) [Example 3, 5-ethyl-5-hydroxy-1,4,5,13-tetrahydro-3H,15H-oxepino [3′,4′:6,7]indolizino[1,2-b]quinoline-3,15-dione] was tested, and the “PERCENTAGE OF CELL PROLIFERATION” value ([1]; 0.1 nM) was 87.22%, the “PERCENTAGE OF CELL PROLIFERATION” value ([1]; 1 nM) was 68.92% and the “PERCENTAGE OF CELL PROLIFERATION” value ([1]; 10 nM) was 42.64%. The “PERCENTAGE OF CELL PROLIFERATION” value ([1]; 100 nM) was 26.85%, the “PERCENTAGE OF CELL PROLIFERATION” value ([1]; 1 000 nM) was 10.83% and the “PERCENTAGE OF CELL PROLIFERATION” value ([1]; 10 000 nM) was 2.11%. For the same compound, the “PERCENTAGE OF CELL PROLIFERATION” value ([1]; 100 000 nM) was 2.20%, the “PERCENTAGE OF CELL PROLIFERATION” value ([2]; 0.1 nM) was 86.00% and the “PERCENTAGE OF CELL PROLIFERATION” value ([2]; 1 nM) was 84.00%. The “PERCENTAGE OF CELL PROLIFERATION” value ([2]; 10 nM) was 58.00%, the “PERCENTAGE OF CELL PROLIFERATION” value ([2]; 100 nM) was 44.00% and the “PERCENTAGE OF CELL PROLIFERATION” value ([2]; 1 000 nM) was 18.00%. For the same compound, the “PERCENTAGE OF CELL PROLIFERATION” value ([2]; 10 000 nM) was 9.00%, the “PERCENTAGE OF CELL PROLIFERATION” value ([2]; 100 000 nM) was 13.00% and the “PERCENTAGE OF CELL PROLIFERATION” value ([3]; 0.1 nM) was 108.00%. For the same compound, the “PERCENTAGE OF CELL PROLIFERATION” value ([3]; 1 nM) was 86.00%, the “PERCENTAGE OF CELL PROLIFERATION” value ([3]; 10 nM) was 54.00% and the “PERCENTAGE OF CELL PROLIFERATION” value ([3]; 100 nM) was 31.00%. For the same compound, the “PERCENTAGE OF CELL PROLIFERATION” value ([3]; 1 000 nM) was 23.00%, the “PERCENTAGE OF CELL PROLIFERATION” value ([3]; 10 000 nM) was 10.00% and the “PERCENTAGE OF CELL PROLIFERATION” value ([3]; 100 000 nM) was 12.00%. For the same compound, the “PERCENTAGE OF CELL PROLIFERATION” value ([4]; 0.1 nM) was 132.00%, the “PERCENTAGE OF CELL PROLIFERATION” value ([4]; 1 nM) was 111.00% and the “PERCENTAGE OF CELL PROLIFERATION” value ([4]; 10 nM) was 75.00%. For the same compound, the “PERCENTAGE OF CELL PROLIFERATION” value ([4]; 100 nM) was 39.00%, the “PERCENTAGE OF CELL PROLIFERATION” value ([4]; 1 000 nM) was 35.00% and the “PERCENTAGE OF CELL PROLIFERATION” value ([4]; 10 000 nM) was 10.00%. For the same compound, the “PERCENTAGE OF CELL PROLIFERATION” value ([4]; 100 000 nM) was 11.00%, the “PERCENTAGE OF CELL PROLIFERATION” value ([5]; 0.1 nM) was 89.00% and the “PERCENTAGE OF CELL PROLIFERATION” value ([5]; 1 nM) was 101.00%. The “PERCENTAGE OF CELL PROLIFERATION” value ([5]; 10 nM) was 68.00%, the “PERCENTAGE OF CELL PROLIFERATION” value ([5]; 100 nM) was 37.00% and the “PERCENTAGE OF CELL PROLIFERATION” value ([5]; 1 000 nM) was 27.00%. The “PERCENTAGE OF CELL PROLIFERATION” value ([5]; 10 000 nM) was 10.00%, the “PERCENTAGE OF CELL PROLIFERATION” value ([5]; 100 000 nM) was 7.00% and the “PERCENTAGE OF CELL PROLIFERATION” value ([6]; 0.1 nM) was 99.00%. The “PERCENTAGE OF CELL PROLIFERATION” value ([6]; 1 nM) was 98.00%, the “PERCENTAGE OF CELL PROLIFERATION” value ([6]; 10 nM) was 40.00% and the “PERCENTAGE OF CELL PROLIFERATION” value ([6]; 100 nM) was 24.00%. The “PERCENTAGE OF CELL PROLIFERATION” value ([6]; 1 000 nM) was 17.00%, the “PERCENTAGE OF CELL PROLIFERATION” value ([6]; 10 000 nM) was 13.00% and the “PERCENTAGE OF CELL PROLIFERATION” value ([6]; 100 000 nM) was 9.00%. For the same compound, the “PERCENTAGE OF CELL PROLIFERATION” value (U87 (human glioblastoma); 0.1 nM) was 108.00%, the “PERCENTAGE OF CELL PROLIFERATION” value (U87 (human glioblastoma); 1 nM) was 85.00% and the “PERCENTAGE OF CELL PROLIFERATION” value (U87 (human glioblastoma); 10 nM) was 42.00%. The “PERCENTAGE OF CELL PROLIFERATION” value (U87 (human glioblastoma); 100 nM) was 23.00%, the “PERCENTAGE OF CELL PROLIFERATION” value (U87 (human glioblastoma); 1 000 nM) was 15.00% and the “PERCENTAGE OF CELL PROLIFERATION” value (U87 (human glioblastoma); 10 000 nM) was 5.00%. For the same compound, the “PERCENTAGE OF CELL PROLIFERATION” value (U87 (human glioblastoma); 100 000 nM) was 6.00%.
